Target: Human PDE9 (PDE9A2) (Homo sapiens (Human), UniProt O76083)
Experiment: PDE9 IMAP fluorescence polarization (FP) inhibition assay
Assay type: biochemical
Settings: apparent inhibition constant; human PDE9A2, FAM-cGMP substrate 50 nM, room temperature
Experimental: The activity of the compounds in accordance with the present invention as PDE9 inhibitors may be readily determined without undue experimentation using a fluorescence polarization (FP) methodology that is well known in the art (Huang, W., et al., J. Biomol Screen, 2002, 7:215).
In a typical experiment the PDE9 inhibitory activity of the compounds of the present invention was determined in accordance with the following experimental method.
Human PDE9 (PDE9A2, GenBank Accession No. NM_001001567), full length with N-terminal GST tag, was purchased from BPS Bioscience. The fluorescence polarization assay for cyclic nucleotide phosphodiesterases was performed using an IMAP® FP kit supplied by Molecular Devices, Sunnyvale, CA (product #R8139). IMAP® technology has been applied previously to phosphodiesterase assays (Huang, W., et al., J. Biomol Screen, 2002, 7:215). Assays were performed at room temperature in 384-well microtiter plates with an incubation volume of 20.2 μL. Solutions of test compounds were prepared in DMSO and serially diluted with DMSO to yield 8 μL of each of 10 solutions differing by 3-fold in concentration, at 32 serial dilutions per plate. 100% inhibition is determined using a known PDE9 inhibitor, such as 1-(2-chlorophenyl)-6-[(2R)-3,3,3-trifluoro-2-methylpropyl]-1,5-dihydro-4H-pyrazolo[3,4-d]pyrimidine-4-one (BAY 73-6691) (Wunder et al, Mol. Pharmacol., 2005, 68 (6): 1775-81), (6-[(3S,4S)-4-methyl-1-(pyrimidin-2-ylmethyl) pyrrolidin-3-yl]-1-(tetrahydro-2H-pyran-4-yl)-1,5-dihydro-4H-pyrazolo[3,4-d]pyrimidin-4-one (PF-04447943) (Wager et al., ACS Chemical Neuroscience, 2010, 1:435-449). 0% of inhibition is determined by using DMSO (1% final concentrations). A Labcyte Echo 555 (Labcyte, Sunnyvale, CA) is used to dispense 200 nL from each well of the titration plate to the 384 well assay plate. Human PDE9A2 membrane preps were diluted to 1 ng/ml. […] PDE9 enzyme mix and compounds were mixed and incubated at room temperature for 30 min. Following which, FAMcGMP substrate was added, shaken and incubated for an additional 60 min at room temperature. The final concentration of human PDE9 membrane preparations were 0.5 ng/ml. The final concentration of FAM-cGMP was 50 nM. After the incubation period, the enzymatic reaction was stopped by addition of binding solution (IMAP-FP, Molecular Devices, comprised of 80% Solution A, 20% Solution B and a 1:600 dilution of binding reagent) to each well. The plates were shaken then incubated at room temperature for 1 h prior to determining the fluorescence polarization (mP) using a Perkin Elmer En Vision™ plate reader (Waltham, MA).
Fluorescence polarization (mP) was calculated from the parallel(S) and perpendicular (P) fluorescence of each sample well and the analogous values for the median control well, containing only substrate (So and Po), using the following equation: […]
Dose-inhibition profiles for each compound were characterized by fitting the mP data to a four-parameter equation given below. The apparent inhibition constant (KI), the maximum inhibition at the low plateau relative to “100% Inhibition Control” (Imax; e.g. 1=>same as this control), the minimum inhibition at the high plateau relative to the “0% Inhibition Control” (Imin, e.g. 0=>same as the no drug control) and the Hill slope (nH) are determined by a non-linear least squares fitting of the mP values as a function of dose of the compound using an in-house software based on the procedures described by Mosser et al., JALA, 2003, 8:54-63, using the following equation: […]
An apparent (Km) for FAM-labeled […] of 150 nM was determined in separate experiments through simultaneous variation of substrate and selected drug concentrations.

Chain of Human PDE9 (PDE9A2) (O76083 other isoform, or with tags, fused parts or gaps): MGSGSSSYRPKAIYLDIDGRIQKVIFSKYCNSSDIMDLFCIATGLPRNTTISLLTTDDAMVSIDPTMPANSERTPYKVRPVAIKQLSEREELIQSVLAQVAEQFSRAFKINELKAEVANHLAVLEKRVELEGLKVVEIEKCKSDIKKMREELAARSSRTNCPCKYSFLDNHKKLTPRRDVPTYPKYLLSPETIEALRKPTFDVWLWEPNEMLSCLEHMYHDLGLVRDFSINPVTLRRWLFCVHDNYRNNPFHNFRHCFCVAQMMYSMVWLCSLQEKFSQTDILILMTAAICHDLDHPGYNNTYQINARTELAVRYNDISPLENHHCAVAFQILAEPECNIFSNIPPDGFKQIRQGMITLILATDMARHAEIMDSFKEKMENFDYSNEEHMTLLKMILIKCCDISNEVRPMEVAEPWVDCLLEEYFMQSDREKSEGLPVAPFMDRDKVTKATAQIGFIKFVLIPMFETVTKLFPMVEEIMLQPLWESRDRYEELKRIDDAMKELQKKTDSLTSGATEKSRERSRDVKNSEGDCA

SMILES	Ki [nM]
CCC(c1ncc(F)cn1)N(C)c1nc2c(c(C#N)nn2C(C)C2CCOCC2)c(=O)[nH]1 (single isomer, unassigned) [Example 38, 6-[1-(5-fluoropyrimidin-2-yl)propyl-methyl-amino]-4-oxo-1-(1-tetrahydropyran-4-ylethyl)-5H-pyrazolo[3,4-d]pyrimidine-3-carbonitrile]	8.35
CCC(c1ncc(F)cn1)N(C)c1nc2c(c(C#N)nn2C(C)C2CCOCC2)c(=O)[nH]1 (single isomer, unassigned) [Example 39, 6-[1-(5-fluoropyrimidin-2-yl)propyl-methyl-amino]-4-oxo-1-(1-tetrahydropyran-4-ylethyl)-5H-pyrazolo[3,4-d]pyrimidine-3-carbonitrile]	0.17
CCC(c1ncc(F)cn1)N(C)c1nc2c(c(C#N)nn2C(C)C2CCOCC2)c(=O)[nH]1 (single isomer, unassigned) [Example 40, 6-[1-(5-fluoropyrimidin-2-yl)propyl-methyl-amino]-4-oxo-1-(1-tetrahydropyran-4-ylethyl)-5H-pyrazolo[3,4-d]pyrimidine-3-carbonitrile]	33.2
C=CCCC(c1ncccn1)N(C)c1nc2c(c(C#N)nn2C(C)c2ccc(C(F)(F)F)nc2)c(=O)[nH]1 (single isomer, unassigned) [Example 41, 6-[methyl(1-pyrimidin-2-ylpent-4-enyl)amino]-4-oxo-1-[1-[6-(trifluoromethyl)-3-pyridyl]ethyl]-5H-pyrazolo[3,4-d]pyrimidine-3-carbonitrile]	0.42
C=CCCC(c1ncccn1)N(C)c1nc2c(c(C#N)nn2C(C)c2ccc(C(F)(F)F)nc2)c(=O)[nH]1 (single isomer, unassigned) [Example 42, 6-[methyl(1-pyrimidin-2-ylpent-4-enyl)amino]-4-oxo-1-[1-[6-(trifluoromethyl)-3-pyridyl]ethyl]-5H-pyrazolo[3,4-d]pyrimidine-3-carbonitrile]	13.2
C=CCCC(c1ncccn1)N(C)c1nc2c(c(C#N)nn2C(C)c2ccc(C(F)(F)F)nc2)c(=O)[nH]1 (single isomer, unassigned) [Example 43, 6-[methyl(1-pyrimidin-2-ylpent-4-enyl)amino]-4-oxo-1-[1-[6-(trifluoromethyl)-3-pyridyl]ethyl]-5H-pyrazolo[3,4-d]pyrimidine-3-carbonitrile]	38.8
C=CCCC(c1ncccn1)N(C)c1nc2c(c(C#N)nn2C(C)c2ccc(C(F)(F)F)nc2)c(=O)[nH]1 (single isomer, unassigned) [Example 44, 6-[methyl(1-pyrimidin-2-ylpent-4-enyl)amino]-4-oxo-1-[1-[6-(trifluoromethyl)-3-pyridyl]ethyl]-5H-pyrazolo[3,4-d]pyrimidine-3-carbonitrile]	19.6
CC(c1ccc(C(F)(F)F)nc1)n1nc(C#N)c2c(=O)[nH]c(N3CCC3c3ncccn3)nc21 (single isomer, unassigned) [Example 45, 4-oxo-6-(2-pyrimidin-2-ylazetidin-1-yl)-1-[1-[6-(trifluoromethyl)-3-pyridyl]ethyl]-5H-pyrazolo[3,4-d]pyrimidine-3-carbonitrile]	0.23
CC(c1ccc(C(F)(F)F)nc1)n1nc(C#N)c2c(=O)[nH]c(N3CCC3c3ncccn3)nc21 (single isomer, unassigned) [Example 46, 4-oxo-6-(2-pyrimidin-2-ylazetidin-1-yl)-1-[1-[6-(trifluoromethyl)-3-pyridyl]ethyl]-5H-pyrazolo[3,4-d]pyrimidine-3-carbonitrile]	21.4
CC(c1ccc(C(F)(F)F)nc1)n1nc(C#N)c2c(=O)[nH]c(N3CCC3c3ncccn3)nc21 (single isomer, unassigned) [Example 47, 4-oxo-6-(2-pyrimidin-2-ylazetidin-1-yl)-1-[1-[6-(trifluoromethyl)-3-pyridyl]ethyl]-5H-pyrazolo[3,4-d]pyrimidine-3-carbonitrile]	22.7
CC(c1ccc(C(F)(F)F)nc1)n1nc(C#N)c2c(=O)[nH]c(N3CCC3c3ncccn3)nc21 (single isomer, unassigned) [Example 48, 4-oxo-6-(2-pyrimidin-2-ylazetidin-1-yl)-1-[1-[6-(trifluoromethyl)-3-pyridyl]ethyl]-5H-pyrazolo[3,4-d]pyrimidine-3-carbonitrile]	17.4
CC(c1ccc(C(F)(F)F)nc1)n1nc(C#N)c2c(=O)[nH]c(N3CCC3c3ccc(F)cc3)nc21 (single isomer, unassigned) [Example 49, 6-[2-(4-fluorophenyl)azetidin-1-yl]-4-oxo-1-[1-[6-(trifluoromethyl)-3-pyridyl]ethyl]-5H-pyrazolo[3,4-d]pyrimidine-3-carbonitrile]	22.7
CC(c1ccc(C(F)(F)F)nc1)n1nc(C#N)c2c(=O)[nH]c(N3CCC3c3ccc(F)cc3)nc21 (single isomer, unassigned) [Example 50, 6-[2-(4-fluorophenyl)azetidin-1-yl]-4-oxo-1-[1-[6-(trifluoromethyl)-3-pyridyl]ethyl]-5H-pyrazolo[3,4-d]pyrimidine-3-carbonitrile]	0.6
CC(c1ccc(C(F)(F)F)nc1)n1nc(C#N)c2c(=O)[nH]c(N3CCC3c3ccc(F)cc3)nc21 (single isomer, unassigned) [Example 51, 6-[2-(4-fluorophenyl)azetidin-1-yl]-4-oxo-1-[1-[6-(trifluoromethyl)-3-pyridyl]ethyl]-5H-pyrazolo[3,4-d]pyrimidine-3-carbonitrile]	7.41
CC(c1ccc(C(F)(F)F)nc1)n1nc(C#N)c2c(=O)[nH]c(N3CCC3c3ccc(F)cc3)nc21 (single isomer, unassigned) [Example 52, 6-[2-(4-fluorophenyl)azetidin-1-yl]-4-oxo-1-[1-[6-(trifluoromethyl)-3-pyridyl]ethyl]-5H-pyrazolo[3,4-d]pyrimidine-3-carbonitrile]	6.7
CC(c1ccc(C(F)(F)F)nc1)n1nc(C#N)c2c(=O)[nH]c(N3CCCC3c3ncccn3)nc21 (single isomer, unassigned) [Example 53, 4-oxo-6-(2-pyrimidin-2-ylpyrrolidin-1-yl)-1-[1-[6-(trifluoromethyl)-3-pyridyl]ethyl]-5H-pyrazolo[3,4-d]pyrimidine-3-carbonitrile]	207
CC(c1ccc(C(F)(F)F)nc1)n1nc(C#N)c2c(=O)[nH]c(N3CCCC3c3ncccn3)nc21 (single isomer, unassigned) [Example 54, 4-oxo-6-(2-pyrimidin-2-ylpyrrolidin-1-yl)-1-[1-[6-(trifluoromethyl)-3-pyridyl]ethyl]-5H-pyrazolo[3,4-d]pyrimidine-3-carbonitrile]	6.53
CC(c1ccc(C(F)(F)F)nc1)n1nc(C#N)c2c(=O)[nH]c(N3CCCC3c3ncccn3)nc21 (single isomer, unassigned) [Example 55, 4-oxo-6-(2-pyrimidin-2-ylpyrrolidin-1-yl)-1-[1-[6-(trifluoromethyl)-3-pyridyl]ethyl]-5H-pyrazolo[3,4-d]pyrimidine-3-carbonitrile]	124
CC(c1ccc(C(F)(F)F)nc1)n1nc(C#N)c2c(=O)[nH]c(N3CCCC3c3ncccn3)nc21 (single isomer, unassigned) [Example 56, 4-oxo-6-(2-pyrimidin-2-ylpyrrolidin-1-yl)-1-[1-[6-(trifluoromethyl)-3-pyridyl]ethyl]-5H-pyrazolo[3,4-d]pyrimidine-3-carbonitrile]	289
CC(c1ccc(C(F)(F)F)nc1)n1nc(C#N)c2c(=O)[nH]c(N3CCC3c3ccc(F)cc3)nc21 (single isomer, unassigned) [Example 57, 6-[2-(4-fluorophenyl)azetidin-1-yl]-4-oxo-1-[1-[6-(trifluoromethyl)-3-pyridyl]ethyl]-5H-pyrazolo[3,4-d]pyrimidine-3-carbonitrile]	1.05
